From the NIST ThermoML archive (doi:10.1021/je600519p)
± gives the expanded uncertainty stated by the source.

How the values were obtained:
[1] = 293.15 K; 101.33 kPa; Liquid
[2] = refractive index (Na D-line) (dimensionless); details: 293.15 K; 101.33 kPa; Liquid

mass density [1] [kg/m3] | refractive index [2] | SMILES
1027.93 ± 0.46 | 1.5336 ± 0.0013 | CC(=O)c1ccccc1 [acetophenone]
974.65 ± 0.29 | 1.3845 ± 0.0012 | CCOC(=O)OCC [diethyl carbonate]
818.84 ± 0.75 | 1.4178 ± 0.0013 | CCCCCCO [hexan-1-ol]
